Assay results taken from patent US20050220803A1, “Use of an organ-specific self-pathogen for treatment of a non-autoimmune disease of said organ” (Yeda Research and Development Co. Ltd., priority 2002, published 2005).
Entries after “also recorded” stand apart in the source; their conditions may differ.

Key:
[1] = tested on: retinal ganglion cells (RGCs); assay: Glutamate toxicity: RGC loss after intravitreal L-glutamate injection and immunization; type: in vivo; details: Lewis rats
[2] = tested on: experimental autoimmune uveoretinitis (EAU); assay: Induction of uveitis / EAU by the peptide; type: in vivo; details: Lewis rats
[3] = tested on: experimental autoimmune uveoretinitis (EAU); details: cited from earlier work; for uveitogenicity / immunopathogenicity: rat, in vivo
[4] = tested on: retinal ganglion cells (RGCs); assay: Partial optic nerve crush injury: RGC survival after active immunization; type: in vivo, rats (SPD, Fisher, Lewis)
[5] = tested on: retinal ganglion cells (RGCs); assay: RGC survival after immunization in the absence of insult; details: for percentage of RGC survival (mean ± SEM) vs PBS-injected controls: immunization without insult
spinal cord = assay: Recovery from spinal cord contusion (open-field locomotor score); type: in vivo; details: female Lewis rats; contusion at T8; 100 μg in CFA (0.5 mg/ml) within 1 h after contusion
[6] = tested on: retinal ganglion cells (RGCs); details: glutamate insult or consequences of axonal injury; conditions where R16 protects; cited from earlier work
[7] = Fisher rats, 200 μg peptide in CFA immediately after optic nerve crush
[8] = Fisher rats, 200 μg peptide in CFA immediately after optic nerve crush, PBS control 109±12

For “ADGSSWEGVGVVPVD (ADGSSWEGVGVVPDV) [Peptide R16, immunodominant uveitogenic peptide, amino acids 1177-1191 of bovine IRBP]”, the “percentage of RGC loss (mean ± SEM) relative to normal retinas” value ([1]; 400 nmol L-glutamate intravitreal, 30 μg peptide in CFA (0.5 mg/ml) immediately after, PBS in CFA control 28±4%) was 14±2%, the “protection of RGCs from glutamate toxicity” value ([1]; peptide emulsified in CFA at 2.5 mg/ml, compared with PBS in CFA, data not shown) was “not protective and even caused additional neuronal loss” and the “clinical onset of EAU, day after immunization” value [2] was 10 days. For the same molecule, the “peak of inflammation (EAU), day after immunization” value [2] was 14 days, the “induction of uveitis” value ([3]; Lewis rats, but not SPD or Fisher rats) was “known to cause uveitis in Lewis rats” and the “surviving RGCs per square millimeter (mean ± SEM)” value ([4]; Fisher rats, 30 μg in CFA (2.5 mg/ml) immediately after optic nerve crush, PBS control 114±9) was 183±16 per square millimeter. For the same molecule, the “surviving RGCs per square millimeter (mean ± SEM)” value ([4]; Fisher rats, 30 μg in CFA one week before crush, booster 30 μg in IFA after injury, PBS control 89±10) was 165±22 per square millimeter, the “surviving RGCs per square millimeter (mean ± SEM)” value ([4]; Lewis rats, 30 μg in CFA (2.5 mg/ml) immediately after optic nerve crush, PBS control 73±10) was 192±8 per square millimeter and the “surviving RGCs per square millimeter (mean ± SEM)” value ([4]; Lewis rats, 30 μg in CFA one week before crush, booster 30 μg in IFA after injury, PBS control 95±22, not statistically significant) was 117±21 per square millimeter. For the same molecule, the “maximal benefit after a neuronal insult (surviving RGCs vs PBS)” value ([4]; Lewis rats, 192±8 vs 73±10 surviving RGCs/mm^2) was 263%, the “surviving RGCs per square millimeter (mean ± SEM)” value ([4]; SPD rats, 30 μg in CFA (2.5 mg/ml) immediately after optic nerve crush, PBS control 60±14) was 150±13 per square millimeter and the “percentage of RGC survival (mean ± SEM) vs PBS-injected controls” value ([5]; Fisher rats) was 97±8%. The “percentage of RGC survival (mean ± SEM) vs PBS-injected controls” value ([5]; Lewis rats, 2 weeks after vaccination) was 83±5%, the “maximal loss of RGCs” value ([5]; non-injured Lewis rats, 2 weeks after vaccination) was about 17% and the “recovery of motor activity (open-field motor score) vs PBS in CFA” value (spinal cord) was “did not affect spinal cord recovery; also recorded: At no time were any differences observed”.

In the case of “DTALASST [M-8 analog, M-8 in which asparagine at position 309 was replaced by alanine]”, the “uveitogenicity / immunopathogenicity” value [3] is given as “immunogenic, but not immunopathogenic”, the “RGC survival compared with PBS-injected controls” value [4, 7] is given as “Significantly more RGCs” and the “surviving RGCs per square millimeter (mean ± SEM)” value [4, 8] is given as 159±19 per square millimeter.

In the case of DTNLASST [Peptide M-8], the “uveitogenicity / immunopathogenicity” value [3] is given as “uveitogenic”, the “RGC survival compared with PBS-injected controls” value [4, 7] is given as “Significantly more RGCs” and the “surviving RGCs per square millimeter (mean ± SEM)” value [4, 8] is given as 153±10 per square millimeter.

In the case of TSSEVATE [Peptide G-8], the “uveitogenicity / immunopathogenicity” value [3] is listed as “uveitogenic”, the “RGC survival compared with PBS-injected controls” value [4, 7] is listed as “Significantly more RGCs” and the “surviving RGCs per square millimeter (mean ± SEM)” value [4, 8] is listed as 159±5 per square millimeter.

For “TSSEAATE [G-8 analog, G-8 in which valine at position 351 was replaced by alanine]”, the “uveitogenicity / immunopathogenicity” value [3] is given as “immunogenic, but not immunopathogenic”, the “RGC survival compared with PBS-injected controls” value ([4]; Fisher rats, 500 μg peptide in CFA immediately after optic nerve crush) is given as “Significantly more RGCs survived” and the “surviving RGCs per square millimeter (mean ± SEM)” value ([4]; Fisher rats, 500 μg peptide in CFA immediately after optic nerve crush, PBS control 90±11) is given as 175±15 per square millimeter.

B1: MBP: myelin basic protein, a myelin antigen (protein, UniProt P02688 2-195, looked up)
Myelin basic protein: ASQKRPSQRHGSKYLATASTMDHARHGFLPRHRDTGILDSIGRFFSGDRGAPKRGSGKVPWLKQSRSPLPSHARSRPGLCHMYKDSHTRTTHYGSLPQKSQRTQDENPVVHFFKNIVTPRTPPPSQGKGRGLSLSRFSWGAEGQKPGFGYGGRASDYKSAHKGFKGAYDAQGTLSKIFKLGGRDSRSGSPMARR
For B1, the “protective effect on RGCs by vaccination” value [6] is given as “no such protective effect”.
